# Literature values in US20100086572A1, “RATIONAL PPI DOSAGE FORMS” (priority 2005, published 2010).
# Read-outs that look alike come from different tables or passages of the source.
# Legend:
# [1] = 0.5 hours
# [2] = tested on: experimentally induced colitis; details: in vivo
structure (smiles),measurement,setting,value
Cc1c(OCC(F)(F)F)ccnc1C[S+]([O-])c1nc2ccccc2[nH]1 (stereo not drawn) [lansoprazole],drug degrading in aqueous solution,"[1]; pH 5, 37° C.",About 49%
same,drug degrading in aqueous solution,"[1]; pH 6, 37° C.",~10%
same,drug degrading in aqueous solution,"[1]; pH 7, 37° C.",~2%
same,drug degrading in aqueous solution,"[1]; pH 8, 37° C.",~1%
same,formation of experimentally induced colitis,[2],inhibits the formation of experimentally induced-induced colitis
same,area under the plasma concentration curve (AUC),30 mg once a day,1934 ng·h/mL
same,area under the plasma concentration curve (AUC),60 mg once a day,4743 ng·h/mL
same,area under the plasma concentration curve (AUC),60 mg three times a day,14083 ng·h/mL
same,area under the plasma concentration curve (AUC),60 mg twice a day,8508 ng·h/mL
